From patent US10266537B2, “3-acetylenyl-pyrazole-pyrimidine derivative, and preparation method therefor and uses thereof” (Si Chuan University, priority 2015, dated 2019)
pIC50: −log10 of the molar value.

Legend:
[1] = biological target: cKit(h) (Homo sapiens (Human), UniProt P10721); assay: Kinase inhibition assay (KinaseProfiler, 33P-ATP); type: biochemical; settings: compound at 10 μM, read-out: The percentage of the remaining active protein
[2] = biological target: Abl(T315I) (Homo sapiens (Human), UniProt P00519, T315I); assay: Kinase inhibition assay (KinaseProfiler, 33P-ATP); type: biochemical; settings: Abl(T315I)(h); compound at 10 μM; read-out: The percentage of the remaining active protein
[3] = biological target: Hck (Homo sapiens (Human), UniProt P08631); assay: Kinase inhibition assay (KinaseProfiler, 33P-ATP); type: biochemical; settings: Hck(h); compound at 10 μM; read-out: The percentage of the remaining active protein
[4] = biological target: ULK3(h) (Homo sapiens (Human), UniProt Q6PHR2); assay: Kinase inhibition assay (KinaseProfiler, 33P-ATP); type: biochemical; settings: compound at 10 μM, read-out: The percentage of the remaining active protein
[5] = biological target: Ret (Homo sapiens (Human), UniProt P07949); assay: Kinase inhibition assay (KinaseProfiler, 33P-ATP); type: biochemical; settings: Ret(h); compound at 10 μM; read-out: The percentage of the remaining active protein
[6] = biological target: EphB4 (Homo sapiens (Human), UniProt P54760); assay: Kinase inhibition assay (KinaseProfiler, 33P-ATP); type: biochemical; settings: for remaining activity at 10 µM: EphB4(h), compound at 10 μM, read-out: The percentage of the remaining active protein
Chain of EphB4 (P54760 16-987): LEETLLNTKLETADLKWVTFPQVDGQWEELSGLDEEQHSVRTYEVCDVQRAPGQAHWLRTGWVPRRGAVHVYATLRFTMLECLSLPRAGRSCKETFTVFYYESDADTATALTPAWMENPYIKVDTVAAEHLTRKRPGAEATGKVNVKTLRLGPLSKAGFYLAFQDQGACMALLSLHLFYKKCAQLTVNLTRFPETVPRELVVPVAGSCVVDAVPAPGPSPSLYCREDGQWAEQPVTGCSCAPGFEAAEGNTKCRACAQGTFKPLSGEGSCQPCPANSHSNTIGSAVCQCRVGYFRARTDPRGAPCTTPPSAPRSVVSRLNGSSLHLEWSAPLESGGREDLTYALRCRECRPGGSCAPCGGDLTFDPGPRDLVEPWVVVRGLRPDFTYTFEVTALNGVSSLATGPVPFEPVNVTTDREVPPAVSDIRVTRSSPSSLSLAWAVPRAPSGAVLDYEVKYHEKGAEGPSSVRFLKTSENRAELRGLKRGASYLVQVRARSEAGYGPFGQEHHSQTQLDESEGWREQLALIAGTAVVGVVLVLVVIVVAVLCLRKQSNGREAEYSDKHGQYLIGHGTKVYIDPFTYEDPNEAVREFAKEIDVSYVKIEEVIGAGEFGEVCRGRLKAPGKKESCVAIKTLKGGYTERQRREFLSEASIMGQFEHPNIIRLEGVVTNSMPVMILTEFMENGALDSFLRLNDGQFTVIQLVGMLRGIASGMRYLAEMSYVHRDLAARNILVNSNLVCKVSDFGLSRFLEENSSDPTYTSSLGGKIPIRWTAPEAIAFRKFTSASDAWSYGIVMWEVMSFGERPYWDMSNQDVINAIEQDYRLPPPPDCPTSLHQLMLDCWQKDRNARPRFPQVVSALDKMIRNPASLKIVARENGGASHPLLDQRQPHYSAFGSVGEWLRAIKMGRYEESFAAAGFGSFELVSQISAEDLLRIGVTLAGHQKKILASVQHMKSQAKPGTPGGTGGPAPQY

[7] = biological target: Met(h) (Homo sapiens (Human), UniProt P08581); assay: Kinase inhibition assay (KinaseProfiler, 33P-ATP); type: biochemical; settings: compound at 10 μM, read-out: The percentage of the remaining active protein
[8] = biological target: cSRC(h) (Homo sapiens (Human), UniProt P12931); assay: Kinase inhibition assay (KinaseProfiler, 33P-ATP); type: biochemical; settings: compound at 10 μM, read-out: The percentage of the remaining active protein
Chain of cSRC(h) (P12931 whole entry, looked up): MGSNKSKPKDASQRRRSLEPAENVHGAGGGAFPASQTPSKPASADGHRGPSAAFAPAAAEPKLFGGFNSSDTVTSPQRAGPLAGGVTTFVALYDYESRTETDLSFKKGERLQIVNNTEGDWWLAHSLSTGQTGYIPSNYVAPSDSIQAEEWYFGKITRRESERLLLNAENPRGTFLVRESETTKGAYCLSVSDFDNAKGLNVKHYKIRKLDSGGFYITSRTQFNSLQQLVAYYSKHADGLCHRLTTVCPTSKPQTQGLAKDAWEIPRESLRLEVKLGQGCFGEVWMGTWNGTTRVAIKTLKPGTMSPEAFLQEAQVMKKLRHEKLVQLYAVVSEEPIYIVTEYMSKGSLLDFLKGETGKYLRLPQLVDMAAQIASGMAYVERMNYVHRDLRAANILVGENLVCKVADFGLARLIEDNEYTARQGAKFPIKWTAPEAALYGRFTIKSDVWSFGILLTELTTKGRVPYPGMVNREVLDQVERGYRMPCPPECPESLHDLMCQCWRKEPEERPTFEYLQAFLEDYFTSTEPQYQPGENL

[9] = biological target: TrkA (Homo sapiens (Human), UniProt P04629); assay: Kinase inhibition assay (KinaseProfiler, 33P-ATP); type: biochemical; settings: for pIC50: TrkA, ATP at Km
Chain of TrkA (P04629 33-796): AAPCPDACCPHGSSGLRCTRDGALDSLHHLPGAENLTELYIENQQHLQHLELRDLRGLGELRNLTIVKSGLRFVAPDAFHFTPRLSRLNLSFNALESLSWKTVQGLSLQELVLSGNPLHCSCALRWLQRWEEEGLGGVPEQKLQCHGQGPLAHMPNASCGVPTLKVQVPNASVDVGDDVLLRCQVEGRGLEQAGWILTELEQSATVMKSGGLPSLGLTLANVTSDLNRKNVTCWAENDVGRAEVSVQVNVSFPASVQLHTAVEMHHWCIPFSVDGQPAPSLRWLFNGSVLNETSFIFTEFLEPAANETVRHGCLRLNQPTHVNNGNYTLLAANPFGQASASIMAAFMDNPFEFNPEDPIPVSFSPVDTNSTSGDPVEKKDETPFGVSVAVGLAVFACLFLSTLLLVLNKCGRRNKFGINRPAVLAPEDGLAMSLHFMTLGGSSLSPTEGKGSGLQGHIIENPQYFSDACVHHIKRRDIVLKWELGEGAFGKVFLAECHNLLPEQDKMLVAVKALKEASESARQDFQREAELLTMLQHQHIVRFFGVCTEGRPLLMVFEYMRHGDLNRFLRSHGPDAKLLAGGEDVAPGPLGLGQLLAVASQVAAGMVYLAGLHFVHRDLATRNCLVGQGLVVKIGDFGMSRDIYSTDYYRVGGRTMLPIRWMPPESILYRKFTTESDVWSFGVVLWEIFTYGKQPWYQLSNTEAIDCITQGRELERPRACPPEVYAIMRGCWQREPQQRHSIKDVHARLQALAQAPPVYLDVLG

[10] = biological target: mTOR(h) (Homo sapiens (Human), UniProt P42345); assay: Kinase inhibition assay (KinaseProfiler, 33P-ATP); type: biochemical; settings: compound at 10 μM, read-out: The percentage of the remaining active protein
[11] = biological target: Lyn (Homo sapiens (Human), UniProt P07948); assay: Kinase inhibition assay (KinaseProfiler, 33P-ATP); type: biochemical; settings: Lyn(h); compound at 10 μM; read-out: The percentage of the remaining active protein
Chain of Lyn (P07948 whole entry): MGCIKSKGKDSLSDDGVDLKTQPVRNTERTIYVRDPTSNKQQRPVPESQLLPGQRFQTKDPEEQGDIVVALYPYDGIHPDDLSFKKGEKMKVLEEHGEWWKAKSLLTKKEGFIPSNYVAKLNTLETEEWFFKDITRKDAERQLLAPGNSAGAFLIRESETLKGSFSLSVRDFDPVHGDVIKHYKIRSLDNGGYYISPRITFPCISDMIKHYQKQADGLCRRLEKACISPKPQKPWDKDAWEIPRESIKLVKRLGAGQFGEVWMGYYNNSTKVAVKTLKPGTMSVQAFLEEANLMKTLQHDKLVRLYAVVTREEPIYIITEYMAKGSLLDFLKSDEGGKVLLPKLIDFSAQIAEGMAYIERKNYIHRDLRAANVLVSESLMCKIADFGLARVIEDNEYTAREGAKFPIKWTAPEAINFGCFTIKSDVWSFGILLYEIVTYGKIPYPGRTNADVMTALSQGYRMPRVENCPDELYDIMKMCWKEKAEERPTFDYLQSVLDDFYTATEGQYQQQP

[12] = biological target: FGFR1 (Homo sapiens (Human), UniProt P11362); assay: Kinase inhibition assay (KinaseProfiler, 33P-ATP); type: biochemical; settings: FGFR1(h); compound at 10 μM; read-out: The percentage of the remaining active protein
Chain of FGFR1 (P11362 22-822): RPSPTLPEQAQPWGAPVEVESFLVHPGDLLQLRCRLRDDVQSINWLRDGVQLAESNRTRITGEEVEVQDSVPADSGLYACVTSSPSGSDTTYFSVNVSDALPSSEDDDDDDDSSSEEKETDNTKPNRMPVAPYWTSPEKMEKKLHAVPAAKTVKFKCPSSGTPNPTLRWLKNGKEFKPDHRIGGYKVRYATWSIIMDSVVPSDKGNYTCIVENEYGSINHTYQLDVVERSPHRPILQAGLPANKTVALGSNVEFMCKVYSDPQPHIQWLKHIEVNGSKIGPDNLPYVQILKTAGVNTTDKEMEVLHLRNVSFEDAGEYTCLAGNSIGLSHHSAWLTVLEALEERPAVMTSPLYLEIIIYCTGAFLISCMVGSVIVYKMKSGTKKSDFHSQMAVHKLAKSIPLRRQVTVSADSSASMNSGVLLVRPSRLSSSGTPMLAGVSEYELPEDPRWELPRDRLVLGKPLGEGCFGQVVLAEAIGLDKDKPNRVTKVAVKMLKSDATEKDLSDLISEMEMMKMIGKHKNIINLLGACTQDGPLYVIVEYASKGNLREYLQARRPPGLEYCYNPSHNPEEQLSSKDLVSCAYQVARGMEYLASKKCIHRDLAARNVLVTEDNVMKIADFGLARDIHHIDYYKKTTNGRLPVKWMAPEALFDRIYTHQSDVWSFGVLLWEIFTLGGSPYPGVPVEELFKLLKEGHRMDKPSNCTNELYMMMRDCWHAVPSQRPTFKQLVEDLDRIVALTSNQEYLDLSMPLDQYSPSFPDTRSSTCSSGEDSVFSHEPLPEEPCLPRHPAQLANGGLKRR

[13] = biological target: Yes (Homo sapiens (Human), UniProt P07947); assay: Kinase inhibition assay (KinaseProfiler, 33P-ATP); type: biochemical; settings: for pIC50: Yes, ATP at Km
Chain of Yes (P07947 whole entry): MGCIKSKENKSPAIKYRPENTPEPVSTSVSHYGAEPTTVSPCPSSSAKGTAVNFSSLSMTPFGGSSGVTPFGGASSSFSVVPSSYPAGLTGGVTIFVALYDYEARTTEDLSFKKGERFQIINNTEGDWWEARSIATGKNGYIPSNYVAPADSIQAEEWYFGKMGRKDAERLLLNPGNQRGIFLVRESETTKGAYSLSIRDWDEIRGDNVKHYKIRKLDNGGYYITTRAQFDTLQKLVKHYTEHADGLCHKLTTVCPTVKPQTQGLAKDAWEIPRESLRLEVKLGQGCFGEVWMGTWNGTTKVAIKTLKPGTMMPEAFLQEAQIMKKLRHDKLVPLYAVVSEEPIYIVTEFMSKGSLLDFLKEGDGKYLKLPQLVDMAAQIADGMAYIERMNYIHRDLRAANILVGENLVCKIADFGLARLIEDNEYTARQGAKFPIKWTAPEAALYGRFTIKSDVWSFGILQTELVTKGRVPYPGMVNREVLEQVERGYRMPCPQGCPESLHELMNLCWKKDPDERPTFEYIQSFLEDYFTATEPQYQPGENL

[14] = biological target: Flt3(h) (Homo sapiens (Human), UniProt P36888); assay: Kinase inhibition assay (KinaseProfiler, 33P-ATP); type: biochemical; settings: compound at 10 μM, read-out: The percentage of the remaining active protein
[15] = biological target: DDR2 (Homo sapiens (Human), UniProt Q16832); assay: Kinase inhibition assay (KinaseProfiler, 33P-ATP); type: biochemical; settings: DDR2(h); compound at 10 μM; read-out: The percentage of the remaining active protein
[16] = biological target: Fyn (Homo sapiens (Human), UniProt P06241); assay: Kinase inhibition assay (KinaseProfiler, 33P-ATP); type: biochemical; settings: Fyn(h); compound at 10 μM; read-out: The percentage of the remaining active protein
Chain of Fyn (P06241 whole entry): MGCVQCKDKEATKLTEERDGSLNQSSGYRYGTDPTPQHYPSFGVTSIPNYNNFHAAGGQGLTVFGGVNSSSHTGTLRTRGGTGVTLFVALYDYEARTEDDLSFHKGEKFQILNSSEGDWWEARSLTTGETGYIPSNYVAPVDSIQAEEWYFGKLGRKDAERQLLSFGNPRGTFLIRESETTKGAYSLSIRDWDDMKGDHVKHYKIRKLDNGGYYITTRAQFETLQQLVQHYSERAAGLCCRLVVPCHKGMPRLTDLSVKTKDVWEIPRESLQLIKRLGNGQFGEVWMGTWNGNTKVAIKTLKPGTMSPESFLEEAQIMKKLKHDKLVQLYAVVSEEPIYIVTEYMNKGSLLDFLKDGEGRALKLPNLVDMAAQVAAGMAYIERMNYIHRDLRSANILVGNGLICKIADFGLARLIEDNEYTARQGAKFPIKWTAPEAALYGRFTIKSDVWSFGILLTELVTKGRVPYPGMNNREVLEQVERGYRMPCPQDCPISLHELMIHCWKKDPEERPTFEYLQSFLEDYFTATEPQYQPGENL

[17] = system: MDA-MB-435; assay: Cell proliferation inhibition assay (MTT); type: cell-based, human; settings: Homo sapiens, MDA-MB-435, 72 h, read-out: Proliferative inhibitory activity MDA-MB-435 (IC50 class)
Procedure: The remaining cell lines were cultured in DMEM complete medium containing 10% fetal bovine serum (MV4-11 cells 20%), 100 U/ml penicillin, 100 μg/mL streptomycin at 5% CO2, and 37° C.
The cells were seeded in 96-well plates with 200 μL of cell suspension per well and incubated overnight in a cell culture medium with a cell concentration of 1˜2×10^4 cells/mL. The next day, the supernatant was discarded (the suspension cell was centrifuged before it) and the cells were treated with gradient concentrations of the test compound, respectively. At the same time, the drug-free negative control group and the equal volume of solvent control group, DMSO concentration of 0.1%, each dose group set up three wells, 37° C., 5% CO2 conditions. After 72 hours, add 20 μL of MTT reagent at a concentration of 5 mg/mL per well. After incubation for 2-4 h, the supernatant was discarded and 150 μL of DMSO was added to each well. […] Determine the absorbance (A) value (λ=570 nm, A value is proportional to the number of living cells), whichever is the average. […] The experiment was repeated at least 3 times. Experimental data were expressed as mean, data statistics using t test, P<0.05 for the difference was statistically significant. The inhibitory effects of the following compounds on cell proliferation were expressed as IC50 or inhibition rates.

[18] = system: MDA-MB-231; assay: Cell proliferation inhibition assay (MTT); type: cell-based, human; settings: Homo sapiens, MDA-MB-231, 72 h, read-out: Proliferative inhibitory activity MDA-MB-231 (IC50 class)

| Structure (SMILES) | remaining activity at 10 µM [1] | remaining activity at 10 µM [3] | remaining activity at 10 µM [5] | remaining activity at 10 µM [6] | remaining activity at 10 µM [8] | pIC50 [9] | remaining activity at 10 µM [11] | remaining activity at 10 µM [12] | pIC50 [13] | remaining activity at 10 µM [15] | remaining activity at 10 µM [16] | also measured |
| --- | --- | --- | --- | --- | --- | --- | --- | --- | --- | --- | --- | --- |
| Cc1ccc(C(=O)Nc2ccc(CN3CCN(C)CC3)c(C(F)(F)F)c2)cc1C#Cc1nn(C2CCNCC2)c2ncnc(N)c12 [Compound 120] | 18% | -2% | -16% | -1% | 0% | 7.04 | -2% | -1% | > 9.00 | 3% | 1% | remaining activity at 10 µM [2]: -1%; remaining activity at 10 µM [4]: 1%; pIC50 ([6]; EphB4, ATP at Km): 7.55; remaining activity at 10 µM [7]: 81%; remaining activity at 10 µM ([9]; TrkA(h), compound at 10 μM, read-out: The percentage of the remaining active protein): 0%; remaining activity at 10 µM [10]: 96%; remaining activity at 10 µM ([13]; Yes(h), compound at 10 μM, read-out: The percentage of the remaining active protein): 0%; remaining activity at 10 µM [14]: 0% |
| C=CC(=O)N1CCC(n2nc(C#Cc3cc(C(=O)Nc4ccc(CN5CCN(C)CC5)c(C(F)(F)F)c4)ccc3C)c3c(N)ncnc32)CC1 [Compound 121, 3-((1-(1-acryloyloxy-4-yl)-4-amino-1H-pyrazolo [3,4-d]pyrimidin-3-yl)ethynyl)-4-methyl-N-(4-((4-methylpiperazin-1-yl)methyl)-3-(trifluoromethyl)phenyl) benzamide] | 59% | 1% | -2% | 0% | 0% | 7.28 | 2% | -1% | 8.70 | 4% | -1% | pIC50 [17]: > 7.00; pIC50 [18]: > 7.00 |
